Laboratory results from US12281098B2, “Five-membered-fused six-membered compound, preparation method, pharmaceutical composition and use” (HANGZHOU POLYMED BIOPHARMACEUTICALS, INC., priority 2021, dated 2025).
Like-named read-outs stand apart in the source and are kept apart here.

How the values were obtained:
IRAK4 kinase = target: T1, IRAK4 kinase (Homo sapiens, UniProt Q9NWZ3); experiment: Compound inhibition of IRAK4 kinase activity (fluorescence microfluidic mobility shift assay); type: biochemical; conditions: 10 μM ATP, 6 nM IRAK4 kinase
T1 construct: purchased Carna 09-145
T1 sequence (Q9NWZ3 1-460): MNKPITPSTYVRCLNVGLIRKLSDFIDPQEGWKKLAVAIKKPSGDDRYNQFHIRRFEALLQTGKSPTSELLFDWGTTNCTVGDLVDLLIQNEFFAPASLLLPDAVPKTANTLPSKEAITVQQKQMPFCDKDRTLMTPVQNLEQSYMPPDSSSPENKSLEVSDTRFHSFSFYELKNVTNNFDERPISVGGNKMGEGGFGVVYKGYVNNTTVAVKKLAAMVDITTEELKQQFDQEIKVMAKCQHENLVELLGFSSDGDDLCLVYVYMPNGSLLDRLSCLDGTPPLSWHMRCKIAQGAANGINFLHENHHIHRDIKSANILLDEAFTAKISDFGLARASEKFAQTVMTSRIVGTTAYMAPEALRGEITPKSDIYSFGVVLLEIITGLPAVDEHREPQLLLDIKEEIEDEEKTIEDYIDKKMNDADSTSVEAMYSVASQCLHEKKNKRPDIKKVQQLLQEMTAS
Experimental: Based on the experimental method of fluorescence microfluidic mobility shift assay, the IC50 value of the compound for competitive binding of ATP to IRAK4 kinase was determined. The initial detection concentration of the compound was 10 μM, which was 4-fold serially diluted to 0.38 nM and assayed in duplicate. In this case, commercially available staurosporine was the standard control for the assay.
1) IRAK4 kinase was dissolved in kinase buffer (50 mM HEPES pH 7.5, 10 mM MgCl2, 2 mM DDT, and 0.01% Brij-35) at a final concentration of 6 nM.
2) The substrate peptide FAM-P8 and ATP were dissolved in the above kinase buffer, and the final concentrations of the substrate peptide FAM-P8 and ATP for IRAK4 were 3 μM and 10 μM, respectively.
3) Compound dilution: The compound was first diluted to 50 μM, and then 4-fold serially diluted with DMSO. In this case, the solution without compound and kinase served as the blank control, corresponding to the “minimum value” shown below; the solution without compound but containing kinase, adenosine 5′-triphosphate disodium salt hydrate, DMSO, and the buffer served as the positive control, corresponding to the “maximum value” shown below.
4) Kinase reaction and termination: 10 μL of the kinase buffer was added to a 384-well plate containing 5 μL of the compound to be tested, and the mixture was incubated at room temperature for 10 minutes; another 10 μL of buffer containing the substrate peptide and adenosine 5′-triphosphate disodium salt hydrate was added to the 384-well plate, and after incubation at 28° C. for 1 hour, 25 μL of termination solution (100 mM HEPES pH 7.5, 50 mM EDTA, 0.2% Coating Reagent #3, and 0.015% Brij-35) was added to each well to terminate the reaction.
5) Data reading: CaliperEZ Reader II instrument was used to read the conversion rate data. Setting conditions: downstream voltage as −500 V, upstream voltage as −2250 V, base pressure as −0.5 PSI, and screening pressure as −1.2 PSI.
6) Data calculation: the conversion rate data was copied from CaliperEZ Reader II, and the conversion rate was converted into inhibition rate data. The calculation formula is as follows: Inhibition percentage (%)=(maximum value−conversion rate)/(maximum value−minimum value)*100%
IC50 values were fitted with XLFit excel add-in version 5.4.0.8.

THP-1 cells = experiment: LPS-stimulated cytokine (TNFα) release in THP-1; type: cell-based, Human; conditions: LPS 100 ng/mL, 5 hours, TNF-α ELISA, read-out: Inhibition IC50 (nM) of cytokines (TNFα) against LPS-stimulated inflammatory responses in THP-1 cells
Experimental: THP-1 cells were cultured in suspension in RPMI 1640 complete medium (containing 10% serum, 1% penicillin-streptomycin, and 55 μM β-mercaptoethanol). THP-1 cells were collected, centrifuged at 350×g at room temperature to discard the supernatant, and resuspended in RPMI 1640 complete medium to a concentration of 2×10^6 cells per mL. THP-1 cells were spread into a 96-well plate at a concentration of 2×10^5 cells per well, and different concentrations of the compound to be tested were added thereto. The plate was incubated in a 37° C. cell culture incubator with 5% CO2 for 60 minutes. 50 μL of LPS at a final concentration of 100 ng/mL was added to a 96-well plate, and incubated in a 37° C. cell culture incubator for 5 hours. The cell culture plate was then taken out from the incubator, and centrifuged at 350×g at low temperature for 5 minutes to collect 150 μL of the supernatant. Referring to the instructions in the Human TNF-α Duoset ELISA Kit, the level of TNF-α in the cell culture supernatant was detected.
Data on the inhibitory activity of cytokines (TNFα) against LPS-stimulated inflammatory responses in THP-1 cells are shown in Tables 3 and 4.

[1] = target: T2, IRAK4 protein in THP-1 cells (Homo sapiens, UniProt Q9NWZ3); experiment: IRAK4 protein degradation in THP-1 induced by PROTAC (Western Blot); type: cell-based; conditions: Table 6, estimated bins, GAPDH internal reference
T2 construct: endogenous in cells; host or cells: THP-1
T2 sequence (Q9NWZ3 1-460): T1 sequence (Q9NWZ3 1-460)
Experimental: 3.1. Based on the experimental method of immunoblot, i.e., Western Blot, THP-1 cell samples processed by gel electrophoresis were stained with specific antibodies, and the degradation activity of the compounds on the IRAK4 protein in THP-1 cells was determined by analyzing the position of the staining and the depth of the staining. The detection concentrations of the compounds were 0 μM, 0.3 μM, 1 μM, and 3 μM, and the compounds were used to treat the cells for 8 hours, 16 hours, 24 hours, and 48 hours. In this case, glyceraldehyde-3-phosphate dehydrogenase (GAPDH) was the internal reference protein for the assay.
THP-1 cells were spread into a 6-well plate at a density of 1.5×10^6 cells per mL, and incubated in a 37° C. cell culture incubator with 5% CO2 for 2 hours. The compound was diluted with DMSO to 0.6 mM, 0.2 mM, and 0.06 mM, respectively. 10 μL of compound solution was added to the corresponding wells, and the plate was incubated in the incubator for 16 hours, 24 hours, and 48 hours, respectively. The drug-treated THP-1 cells were collected from the wells, added with 120 μL of RIPA lysis buffer containing protease inhibitor, phosphatase inhibitor cocktail 2, and phosphatase inhibitor cocktail 3, and lysed on wet ice for 30 minutes. The cell lysate was then centrifuged at low temperature and high speed for 5 minutes, and the supernatant was collected. Referring to the instructions in the Pierce™ BCA Protein Assay Kit, the cell samples were tested for protein concentration.
The samples were adjusted to the same concentration using lysis buffer and NuPAGE® LDS sample buffer containing 1 M DTT. The samples were heated at 95° C. for 5 minutes and centrifuged at low temperature and high speed. 20 μL of prepared protein sample and 4 μL of PageRuler Prestained Protein Ladder were added to the gel wells. The mixture was electrophoresed at a voltage of 80 V for 0.5 hours, and then electrophoresed for another 1.5 hours after the voltage was adjusted to 120 V. The gel was removed and proteins in the gel were transferred to IBlot™ 2 Transfer Stack at a voltage of 20V. After successful membrane transfer, the bands were cut out at 65 kDa to 40 kDa and 40 kDa to 30 kDa, respectively. The membrane was blocked with 5% non-fat milk at room temperature for 1 hour. The membrane was washed three times with 1×TBST, and incubated with IRAK4 antibody working solution at 4° C. overnight. The IRAK4 antibody working solution was discarded, and the membrane was washed three times with 1×TBST. After the corresponding membrane was incubated with Goat Anti-Rabbit IgG H&L (HRP) working solution and Goat Anti-Mouse IgG H&L (HRP) working solution at room temperature for 1 hour, the antibody working solutions were discarded, and the membrane was washed three times with 1×TBST. Referring to the instructions in the SuperSignal™ West Femto Maximum Sensitivity Substrate Kit, the reagents in the kit were mixed in equal volume proportions to prepare a luminescent mixture, and the membrane was incubated for 1 minute and removed for exposure.
WB assay: The results 24 hours after administration at 1 μM were divided into estimated <25%, <50%, <75%, and <100%.

Compound | IC50 (IRAK4 kinase; Table 1) | IC50 (IRAK4 kinase; Table 2) | IC50 (THP-1 cells; Homo sapiens, THP-1, Table 3) | IC50 (THP-1 cells; Table 4) | IC50 (THP-1 cells; Homo sapiens, THP-1, Table 4) | Western Blot results 24 hours after administration at a drug concentration of 1 μM [1]
COc1cc2c(cc1NC(=O)c1cccc(C(F)(F)F)n1)CN(CCC(C)(C)C(=O)N1CCC3(CC1)CCN(c1cccc4c1C(=O)N(C1CCC(=O)NC1=O)C4=O)CC3)C2=O (stereo not drawn) [III-25] | 100 to 1000 nM | 100 to 1000 nM | 1000 to 10000 nM | 1000 to 10000 nM | – | –
COc1cc2c(cc1NC(=O)c1cccc(C(F)(F)F)n1)CN(CCC(C)(C)C(=O)N1CCC3(CCC(C(=O)N[C@H](C(=O)N4C[C@H](O)C[C@H]4C(=O)N[C@@H](C)c4ccc(-c5scnc5C)cc4)C(C)(C)C)CC3)CC1)C2=O [III-26] | < 100 nM | < 100 nM | 1000 to 10000 nM | 1000 to 10000 nM | – | –
COc1cc2c(cc1NC(=O)c1cccc(C(F)(F)F)n1)CN(CC(=O)N1CCC3(CC1)CCN(c1cccc4c1C(=O)N(C1CCC(=O)NC1=O)C4=O)CC3)C2=O (stereo not drawn) [III-24] | 100 to 1000 nM | 100 to 1000 nM | 100 to 1000 nM | 100 to 1000 nM | – | –
COc1cc2nn(CCN3CCN(CC(=O)N4CC5(CC(CC(=O)N[C@H](C(=O)N6C[C@H](O)C[C@H]6C(=O)N[C@@H](C)c6ccc(-c7scnc7C)cc6)C(C)(C)C)C5)C4)CC3)cc2cc1NC(=O)c1cccc(C(F)(F)F)n1 [III-31] | < 100 nM | < 100 nM | – | – | 1000 to 10000 nM | –
CC(C)(O)c1cc2nn(CCN3CCN(CC(=O)NCCCCNc4cccc5c4C(=O)N(C4CCC(=O)NC4=O)C5=O)C3=O)cc2cc1NC(=O)c1cccc(C(F)(F)F)n1 (stereo not drawn) [III-10] | 100 to 1000 nM | 100 to 1000 nM | 1000 to 10000 nM | 1000 to 10000 nM | – | –
COc1cc2nn(CCN3CC4CCC(C3)N4CC(=O)N3CCC4(CC3)CCN(c3cccc5c3C(=O)N(C3CCC(=O)NC3=O)C5=O)CC4)cc2cc1NC(=O)c1cccc(C(F)(F)F)n1 (stereo not drawn) [III-54] | – | < 100 nM | – | – | – | <25%
CC(C)(O)c1cc2nn(CCN3CCN(CC(=O)NCCOCCOCCNc4cccc5c4C(=O)N(C4CCC(=O)NC4=O)C5=O)C3=O)cc2cc1NC(=O)c1cccc(C(F)(F)F)n1 (stereo not drawn) [III-2] | 100 to 1000 nM | 100 to 1000 nM | ≥ 10000 nM | ≥ 10000 nM | – | –
COc1cc2nn(CCN3CCN(CC(=O)N4CCC5(CCC(N[C@H](C(=O)N6C[C@H](O)C[C@H]6C(=O)N[C@@H](C)c6ccc(-c7scnc7C)cc6)C(C)(C)C)CC5)CC4)C3=O)cc2cc1NC(=O)c1cccc(C(F)(F)F)n1 [III-35] | – | < 100 nM | – | – | 100 to 1000 nM | –
